# Key:
# [1] = system: field bindweed; assay: Test F postemergence; type: in vivo, Convolvulus arvensis; settings: scale 0 to 100
# How it was run: (§1)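 Seeds were sown in silt loam and sprayed preemergence with compound in a non-phytotoxic solvent mixture containing surfactant. Postemergence sprays went onto plants 2 to 18 cm tall (1- to 4-leaf stage). After 14 to 21 days in a greenhouse, injury was rated visually against untreated controls, 0 (no effect) to 100 (complete control).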
# [2] = system: barnyardgrass; assay: Test F postemergence; type: in vivo, Echinochloa crus-galli; settings: scale 0 to 100
# How it was run: as §1
# [3] = system: crabgrass, naked; assay: Test E preemergence; type: in vivo, Digitaria nuda; settings: 21 days, scale 0 to 100
# From the text: (§2) Seeds of plant species selected from bermudagrass (Cynodon dactylon), Surinam grass (Brachiaria decumbens), crabgrass, large (large crabgrass, Digitaria sanguinalis), crabgrass, naked (naked crabgrass, Digitaria nuda), foxtail, green (green foxtail, Setaria viridis), johnsongrass (Sorghum halepense), kochia (Kochia scoparia), morningglory (pitted morningglory, Ipomoea lacunosa), nutsedge, purple (purple nutsedge, Cyperus rotundus), ragweed (common ragweed, Ambrosia elation), mustard, black (black mustard, Brassica nigra), guineagrass (Panicum maximum), dallisgrass (Paspalum dilatatum), barnyardgrass (Echinochloa crus-galli), sandbur (southern sandbur, Cenchrus echinatus), sowthistle (common sowthistle, Sonchus oleraceous), ryegrass, Italian (Italian ryegrass, Lolium multiflorum), signalgrass (broadleaf signalgrass, Brachiaria platyphylla), dayflower, VA (Virginia (VA) dayflower, Commelina virginica), bluegrass (annual bluegrass, Poa annua), quackgrass (Elytrigia repens), mallow (common mallow, Malva sylvestris), buckwheat, wild (wild buckwheat, Polygonum convolvulus), leafy spurge (Euphorbia esula), common chickweed (Stellaria media), wild poinsettia (Euphorbia heterophylla), pigweed, palmer (palmer pigweed, Amaranthus palmeri), and pigweed (redroot pigweed, Amaranthus retroflexus) were planted into a blend of loam soil and sand and treated preemergence with test chemicals formulated in a non-phytotoxic solvent mixture which included a surfactant.
# (§3) Treated plants and controls were maintained in a greenhouse for 21 days, after which time all species were compared to controls and visually evaluated. Plant response ratings, summarized in Table E, are based on a scale of 0 to 100 where 0 is no effect and 100 is complete control. A dash (-) response means no test result.
# [4] = system: guineagrass; assay: Test E preemergence; type: in vivo, Panicum maximum; settings: 21 days, scale 0 to 100
# From the text: as §2, §3
# [5] = system: johnsongrass; assay: Test E preemergence; type: in vivo, Sorghum halepense; settings: 21 days, scale 0 to 100
# From the text: as §2, §3
# [6] = system: sandbur; assay: Test E preemergence; type: in vivo, Cenchrus echinatus; settings: 21 days, scale 0 to 100
# From the text: as §2, §3
# [7] = system: kochia; assay: Test F postemergence; type: in vivo, Kochia scoparia; settings: scale 0 to 100
# From the text: (§4) Seeds of plant species selected from corn (Zea mays), soybean (Glycine max), velvetleaf (Abutilon theophrasti), lambsquarters (Chenopodium album), wild poinsettia (Euphorbia heterophylla), pigweed, palmer (palmer pigweed, Amaranthus palmeri), common waterhemp (Amaranthus rudis), surinam grass (Brachiaria decumbens), large crabgrass (Digitaria sanguinalis), crabgrass, Brazil (Brazilian crabgrass, Digitaria horizontalis), fall panicum (Panicum dichotomiflorum), giant foxtail (Setaria faberii), green foxtail (Setaria viridis), goosegrass (Eleusine indica), johnsongrass (Sorghum halepense), common ragweed (Ambrosia elation), barnyardgrass (Echinochloa crus-galli), southern sandbur (Cenchrus echinatus), arrowleaf sida (Sida rhombifolia), Italian ryegrass (Lolium multiflorum), dayflower, VA (Virginia (VA) dayflower, Commelina virginica), field bindweed (Convolvulus arvensis), cocklebur (common cocklebur, Xanthium strumarium), morningglory (Ipomoea coccinea), nightshade (eastern black nightshade, Solanum ptycanthum), kochia (Kochia scoparia), yellow nutsedge (Cyperus esculentus), and hairy beggarticks (Bidens pilosa), were planted into a silt loam soil and treated preemergence with test chemicals formulated in a non-phytotoxic solvent mixture which included a surfactant.
# (§5) At the same time, plants from these crop and weed species and also horseweed (Canada horseweed, Conyza canadensis), smartweed (ladysthumb smartweed, Polygonum persicaria), waterhemp_RES1, (ALS & Triazine resistant common waterhemp, Amaranthus rudis), and waterhemp_RES2, (ALS & HPPD resistant common waterhemp, Amaranthus rudis) were treated with postemergence applications of test chemicals formulated in the same manner. Plants ranged in height from 2 to 18 cm for postemergence treatments (1- to 4-leaf stage). Treated plants and controls were maintained in a greenhouse for 14 to 21 days, after which time all species were compared to controls and visually evaluated. Plant response ratings, summarized in Table F, are based on a scale of 0 to 100 where 0 is no effect and 100 is complete control. A dash (-) response means no test result.
# [8] = system: common ragweed; assay: Test F postemergence; type: in vivo, Ambrosia elation; settings: scale 0 to 100
# From the text: as §4, §5
# [9] = system: Italian ryegrass; assay: Test A preemergence; type: in vivo, Lolium multiflorum
# How it was run: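 Both timings tested concurrently in loam/sand soil: preemergence by directed soil spray, postemergence on plants of 2–10 cm at the one- to two-leaf stage. Greenhouse holding period was approximately 10 days before visual injury assessment (0–100, 0 = no effect).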
# [10] = 125 g ai/ha, visual injury, 0 to 100 scale, approx. 10 days
# [11] = 500 g ai/ha, visual injury after approx. 10 days, 0 to 100 scale (0 no effect, 100 complete control)
structure (smiles),measurement,setting,value
CCCc1cc(C(=O)NCC(F)(F)F)nn1Cc1ccnc(C(F)(F)F)c1 [Compound 105],"Plant response rating, Field Bindweed","[1]; Postemergence, 31 g ai/ha",70
same,"Plant response rating, Field Bindweed","[1]; Postemergence, 125 g ai/ha",70
same,"Plant response rating, Field Bindweed","[1]; Postemergence, 250 g ai/ha",80
same,"Plant response rating, Field Bindweed","[1]; postemergence, 62 g ai/ha",75
same,"Plant response rating, Field Bindweed","[1]; postemergence, 500 g ai/ha",90
same,"Plant response rating, Barnyardgrass","[2]; Postemergence, 31 g ai/ha",10
same,"Plant response rating, Barnyardgrass","[2]; Postemergence, 125 g ai/ha",15
same,"Plant response rating, Barnyardgrass","[2]; Postemergence, 250 g ai/ha",60
same,"Plant response rating, Barnyardgrass","[2]; postemergence, 62 g ai/ha",5
same,"Plant response rating, Barnyardgrass","[2]; postemergence, 500 g ai/ha",90
same,"Plant response rating, Crabgrass, Naked",[3]; 16 g ai/ha,90
same,"Plant response rating, Crabgrass, Naked",[3]; 31 g ai/ha,100
same,"Plant response rating, Crabgrass, Naked",[3]; 62 g ai/ha,100
same,"Plant response rating, Crabgrass, Naked",[3]; 125 g ai/ha,100
same,"Plant response rating, Crabgrass, Naked",[3]; 250 g ai/ha,100
same,"Plant response rating, Guineagrass",[4]; 16 g ai/ha,75
same,"Plant response rating, Guineagrass",[4]; 31 g ai/ha,90
same,"Plant response rating, Guineagrass",[4]; 62 g ai/ha,100
same,"Plant response rating, Guineagrass",[4]; 125 g ai/ha,100
same,"Plant response rating, Guineagrass",[4]; 250 g ai/ha,100
same,"Plant response rating, Johnsongrass",[5]; 16 g ai/ha,35
same,"Plant response rating, Johnsongrass",[5]; 31 g ai/ha,80
same,"Plant response rating, Johnsongrass",[5]; 62 g ai/ha,98
same,"Plant response rating, Johnsongrass",[5]; 125 g ai/ha,98
same,"Plant response rating, Johnsongrass",[5]; 250 g ai/ha,100
same,"Plant response rating, Sandbur",[6]; 16 g ai/ha,5
same,"Plant response rating, Sandbur",[6]; 31 g ai/ha,50
same,"Plant response rating, Sandbur",[6]; 62 g ai/ha,70
same,"Plant response rating, Sandbur",[6]; 125 g ai/ha,95
same,"Plant response rating, Sandbur",[6]; 250 g ai/ha,98
same,"Plant response rating, Kochia","[7]; Postemergence, 31 g ai/ha",60
same,"Plant response rating, Kochia","[7]; Postemergence, 125 g ai/ha",90
same,"Plant response rating, Kochia","[7]; Postemergence, 250 g ai/ha",95
same,"Plant response rating, Kochia","[7]; postemergence, 62 g ai/ha",90
same,"Plant response rating, Kochia","[7]; postemergence, 500 g ai/ha",95
same,"Plant response rating, Common Ragweed","[8]; Postemergence, 31 g ai/ha",50
same,"Plant response rating, Common Ragweed","[8]; Postemergence, 125 g ai/ha",90
same,"Plant response rating, Common Ragweed","[8]; Postemergence, 250 g ai/ha",90
same,"Plant response rating, Common Ragweed","[8]; postemergence, 62 g ai/ha",70
same,"Plant response rating, Common Ragweed","[8]; postemergence, 500 g ai/ha",95
CCONC(=O)c1cc(CC)n(Cc2cc(C(F)(F)F)no2)n1 [Compound 125],Italian Ryegrass plant response rating,[9]; [10],20
same,Italian Ryegrass plant response rating,[9]; [11],100
CCOc1cc(C(=O)NC2CC2)nn1Cc1ccnc(OC(F)F)c1 [Compound 133],Italian Ryegrass plant response rating,[9]; [10],40
same,Italian Ryegrass plant response rating,[9]; [11],90
CCc1cc(C(=O)NCC(F)(F)F)nn1Cc1cc(OC(F)F)nn1C [Compound 206],Italian Ryegrass plant response rating (0 to 100 scale),"[9]; 125 g ai/ha, visual injury approx. 10 days after treatment",0
same,Italian Ryegrass plant response rating,[9]; [11],20
